Here are results for one compound from article PMC6389896 (Communications Biology, 2019).

Where “and” joins values, the source holds several entries; their conditions need not be identical. Identical values can stand only once.

The target of one series is human esRAGE (Homo sapiens, UniProt Q15109). Description: Surface plasmon resonance (BIAcore) of oxytocin binding to immobilised esRAGE. The following applies: SPR BIAcore 2000, immobilised recombinant human esRAGE (~5000 RU), 10 mM HEPES pH 7.4, 0.15 M NaCl, 25 °C; read-out: apparent dissociation constant (KD). Here is the method: Isolated human esRAGE was immobilised to BIAcore CM5 research grade sensor chips with the amine coupling kit to a density of ~5000 response units (RU)[27],[32],[41]. […] The sensor chips were regenerated with 10 mM NaOH and 0.5% SDS (W/V).
For orientation: In SPR one partner is held on a chip, and binding of the other changes the refractive index at the surface.

In series [1] the test system is monkey brain capillary endothelial cells. Briefly: In vitro blood-brain barrier (BBB) model (MBT-24H), transport between luminal and abluminal chambers, control or RAGE shRNA knockdown. As to conditions: individual wells, listed as OT; for OT in lower (abluminal, brain) chamber: blood-to-brain, 3 h; for OT in luminal chamber: brain-to-blood, n = 3. Here is the method: EC, monkey brain capillary endothelial cells; Peri, rat brain pericytes; Astro, rat astrocytes. […] The endothelial cells used in the upper chamber in a were treated with RAGE shRNA (knockdown, KD) or control (C or CNT) vectors to assess the effects of RAGE knockdown. […] Values are mean ± SEM
For the in vitro BBB model (MBT-24H, PharmaCo-Cell Co., Nagasaki, Japan), rat brain pericytes (1.5 × 10^4 cells/cm^2) and rat astrocytes (1.5 × 10^4 cells/cm^2) were seeded on the bottom of the collagen-coated polyester membranes of Transwell inserts (Corning Life Sciences, MA, USA). After 16 h the cells firmly adherent, monkey brain vascular endothelial cells (1.5 × 10^5 cells/cm^2) were then seeded on the upper side of the inserts in 24-well culture plates. The in vitro BBB models were established within 4 days of seeding the cells according to the manufacturer’s instructions. Trans-endothelial electrical resistance (TEER), which primarily reflects the flux of sodium ions through the cell layers in the culture conditions, was measured with an epithelial-volt-ohm metre and an Endohm-6 chamber electrodes (World Precision Instruments, Sarasota, FL, USA). The TEERs of the coated, cell-free filters were subtracted from the measured TEER values of the models and shown as Ω cm^2. The apparent permeability constants (Papp) between luminal and abluminal chambers were calculated from the distribution ratios. Endothelial expression was silenced using RAGE shRNA and the pSilencer 3.0-H1 vector (Ambion, Austin, TX, USA)[41]. […]

The nature of series [2]: Plasma oxytocin after subcutaneous injection, EIA. As to conditions: WT and Ager-/- male mice. It counts as in vivo, mouse. Here is the method:
CSF was collected according to the protocol for sampling CSF from mice without detectable plasma contamination[77],[78]. Under ketamine anaesthesia (100 mg/kg intraperitoneally), the occipital skull was exposed, and the dura mater of the cisterna magna appeared as a glistening and clear reverse triangle through which the medulla oblongata, a major blood vessel (arteria dorsalis spinalis), and CSF space were visible. A capillary tube was inserted into the cisterna magna through the dura mater, blood-free CSF samples were collected with a 32G needle and immediately frozen with dry ice prior to storage at −80 °C. After CSF collections, blood samples were obtained by cardiac puncture from the mice under continuous ketamine anaesthesia.
(§1) The CSF samples (5 μl) were thawed and diluted 1:20 in assay buffer. CSF samples were assayed without protein extraction due to the low protein concentration in the CSF. […] The inter-assay and intra-assay coefficients of variation were less than 15%.
Supplementary Figure 5. Transportation of peripherally administrated oxytocin (OT) or PBS into […]
Blood was recovered from the cardiac ventricles of the wild type (WT, RAGE+/+) and Ager-/- (RAGE-/-) male mice (n = 3–16). Oxytocin was measured in the extracted samples. […]
concentrations were measured with enzyme immunosorbent assay (EIA) or LC-MS/MS. […]

A short description of series [3]: Oxytocin in CSF of the third ventricle after subcutaneous injection. It counts as in vivo, mouse. The following applies: 90 min after sc 30 ng, 0 min = 100, individual animals, listed as OT. Here is the method: In separate experiments we cannulated the third ventricles of WT and Ager^−/− mice and withdrew CSF for oxytocin measurements.
as §1

Series [4] in a line: Microperfusion of the amygdala, oxytocin in microperfusates. In kind it is in vivo, mouse. As to conditions: intranasal 20 ng, 0 min = 100, individual animals, listed as OT. An excerpt: For microperfusion probe implantation, the male mice were with a subcutaneous injections of ketamine. The heads of anesthetised mice were fixed in a stereotactic frame (Narishige, Tokyo, Japan) and a 1 mm hole was drilled in the skull. The intact dura intact was then punctured to create defined opening of the meninges. Using the stereotactic frame, a healing dummy was slowly inserted into the three brain positions. The probe was fixed to the skull by using two anchor screws and biocompatible dental cement. All surgical procedures were completed within 30 min. A healing dummy was used to provide mechanical stability during the implantation and the healing period of 2 weeks. The microperfusion probe (a 4-mm length of the coaxial tube, 2.5 mm in diameter) consisting of a 20 G fluorinated ethylene propylene guide cannula was replaced before sampling with an inflow/outflow tubing on the day of the experiments. This tubing was connected to two glass Hamilton microsyringes placed in syringe pumps (Eicom, Osaka, Japan). Microperfusate was pumped into the probe at a flow rate of 2 µl/min, and the samples were withdrawn at the same flow rate. Sampling was conducted for 2 h. Both microprobes were perfused without sampling for 60 min before the first 30-min microperfusates from the amygdala, PVN, and prefrontal cortex were collected. The microperfusates were mixed under sterile conditions and consisted of 154 mM NaCl, 2.2 mM CaCl2, 5.6 mM KCl, 2.3 mM NaHCO3, and 0.15% BSA (pH 7.4)[80]. Beginning immediately after the nasal application, 4 additional microperfusates were taken at 30-min intervals. After the termination of the experiments, the brains were removed and snap-frozen to obtain 40-μm cryo-cut stained brain slices later for the histological verification of the perfusion site.

Details of series [5]: method as in earlier work. The following applies: i.n. application of 50 μg oxytocin in female pigs; ref 18 (Rault et al.); cited from earlier work.

Chain of human esRAGE (Q15109 23-347 isoform Q15109-3 limits assumed): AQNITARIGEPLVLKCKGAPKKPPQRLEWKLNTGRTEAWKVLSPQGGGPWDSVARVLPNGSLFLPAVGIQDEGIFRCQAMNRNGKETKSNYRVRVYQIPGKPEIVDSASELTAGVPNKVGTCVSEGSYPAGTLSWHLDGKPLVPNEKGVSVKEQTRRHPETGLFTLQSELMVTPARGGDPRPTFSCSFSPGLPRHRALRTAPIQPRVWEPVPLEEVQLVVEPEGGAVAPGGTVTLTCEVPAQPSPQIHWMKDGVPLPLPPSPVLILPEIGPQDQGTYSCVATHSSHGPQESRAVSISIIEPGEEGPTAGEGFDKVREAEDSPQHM

One may read the Tmax as the time at which the peak concentration occurs. What is called bioavailability is the share of a dose that reaches the circulation, judged against a reference dose that is usually intravenous. Turning to `CC[C@H](C)[C@@H]1NC(=O)[C@H](Cc2ccc(O)cc2)NC(=O)[C@@H](N)CSSC[C@@H](C(=O)N2CCC[C@H]2C(=O)N[C@@H](CC(C)C)C(=O)NCC(N)=O)NC(=O)[C@H](CC(N)=O)NC(=O)[C@H](CCC(N)=O)NC1=O` [oxytocin, Oxytocin], at human esRAGE, the Kd was 179 nM. In addition, the “OT in lower (abluminal, brain) chamber” value in series [1] (1 ng/ml added to luminal chamber, control vector (C)) was 10 pg/mL and 13 pg/mL and 13.5 pg/mL and 11.5 pg/mL and 22.2 pg/mL; in series [1] (1 ng/ml luminal, RAGE shRNA knockdown (KD)), 5 pg/mL and 4.2 pg/mL and 2 pg/mL and 8 pg/mL; in series [1] (10 ng/ml luminal, RAGE KD), 8 pg/mL and 8.5 pg/mL and 9 pg/mL and 5 pg/mL; in series [1] (10 ng/ml luminal, control vector (C)), 21 pg/mL and 28 pg/mL and 15.5 pg/mL and 24 pg/mL and 27 pg/mL. For the same compound, the “OT in luminal chamber” value is 0.32 pg/mL and 0.34 pg/mL and 0.36 pg/mL in series [1] (1 ng/ml abluminal, RAGE KD); 0.84 pg/mL and 1.12 pg/mL and 0.62 pg/mL in series [1] (1 ng/ml added to abluminal chamber, control (C)); 2 pg/mL and 1.68 pg/mL and 0.8 pg/mL in series [1] (10 ng/ml abluminal, RAGE KD); 4 pg/mL and 5.2 pg/mL and 5.4 pg/mL in series [1] (10 ng/ml abluminal, control (C)). Further, the “apparent permeability constant (Papp)” value in series [1] (head 1 ng/ml, RAGE KD, calculated from distribution ratios) is 1.263 x10^-6 and 1.061 x10^-6 and 0.505 x10^-6 and 2.02 x10^-6; in series [1] (head 1 ng/ml, control (C), calculated from distribution ratios across chambers) it was 2.525 x10^-6 and 3.283 x10^-6 and 3.409 x10^-6 and 2.904 x10^-6; in series [1] (head 10 ng/ml, RAGE KD, calculated from distribution ratios) it was 0.076 x10^-6 and 0.098 x10^-6. Moreover, the Tmax in series [2] (plasma, sc 30 ng/mouse (approximately 1.1 μg/kg)) was at most 10 min. Further, in series [2] (sc 30 ng/mouse), the “time of return of blood oxytocin to baseline” value was in the range of 1 to 2 h. Moreover, the “OT % in CSF of the 3rd ventricle” value in series [3] (Ager+/+ male mice) is 295% and 138% and 171% and 41% and 195% and 116% and 100% and 188% and 206%; in series [3] (Ager-/- male mice), 137% and 73% and 77% and 133% and 80% and 118% and 115% and 103%. Besides, the “OT % in microperfusates of the amygdala” value in series [4] (Ager-/- mice, 30 min) was 116% and 89% and 169% and 98% and 65% and 54% and 55% and 105% and 67% and 87% and 79%; in series [4] (Ager-/- mice, 60 min) it was 66% and 55% and 85% and 123% and 83% and 92% and 78% and 84% and 76% and 112% and 77% and 93% and 79%; in series [4] (Ager-/- mice, 90 min), 137% and 158% and 73% and 162% and 90% and 65% and 76% and 99% and 129% and 131% and 83% and 110% and 163%; in series [4] (WT mice, 30 min), 211% and 198% and 89% and 141% and 104% and 174%; in series [4] (WT mice, 60 min), 190% and 195% and 144% and 170% and 93% and 133%; in series [4] (WT mice, 90 min), 204% and 156% and 78% and 216% and 359% and 124%. Moreover, the bioavailability in series [5] is 0.001%.
